Measured values taken from patent US20120315290A1, “INHIBITORS OF LL-37 MEDIATED IMMUNE REACTIVITY TO SELF NUCLEIC ACIDS” (BOARD OF REGENTS, THE UNIVERSITY OF TEXAS SYSTEM, priority 2006, published 2012).

What was measured:
B16-OVA tumor = assay: Vaccination of mice bearing established B16-OVA melanoma, tumor size; type: in vivo, C57BL/6 mice; settings: mixed with irradiated B16-OVA
Description: Mice bearing a 7-d subcutaneous B16 melanoma transfected with a gene encoding OVA (B16-OVA) were vaccinated subcutaneously with 1) LL-37 alone; irradiated B16-OVA tumor (iB16-OVA); irradiated B16-OVA tumor mixed with […] CpG-2216 (iB16-OVA+CpG); irradiated B16-OVA tumor with […] LL-37 (iB16-OVA+LL-37). Tumor size was monitored by caliper every second day. Data represent mean of 4 mice per group.
We also performed vaccine studies using the B16 tumor model of melanoma, B16 is a highly aggressive tumor with low immunogenicity. B16 tumor cells can be transfected with ovalbumin (OVA) to provide an immunogen that allows easy tracking of the anti-tumor immune response. 3×10^5 B16-OVA tumor cells were implanted subcutaneously in the flank of C57BL/6 mice and allowed to grow. Seven days later mice were treated with a single subcutaneous injection of LL-37 mixed with irradiated B16-OVA tumor cells. Control injections included LL-37 alone, irradiated B16-OVA alone, or irradiated B16-OVA mixed with the synthetic TLR9 agonist CpG. A detailed method on the generation of these vaccines is provided in D2.1. Tumor size was monitored with a caliper and volumes estimated using the formula […]. The experiment was stopped 10 days after injection because all mice in the control group had died or their tumor had reached 20 mm in their maximal diameter.

B16 tumor = assay: Intratumoral injection into established B16 melanoma, tumor size; type: in vivo, C57BL/6 mice
Description: Mice bearing a 7-d subcutaneous B16 melanoma were injected with […] of LL-37 once (single), or repeatedly for 3 days (3×). Control injections were done with PBS. Tumor size was monitored by caliper every second day. Data represent mean of 4 mice per group.
Intratumoral injection of LL-37 elicits potent anti-tumor activity. 3×10^5 B16 tumor cells were inoculated into shaved flanks of C57BL/6 mice. Tumors were allowed to grow for 7 days. On day 7, tumors were either injected with a single dose of LL-37 (100 μg), injected daily for 3 consecutive days with LL-37 or injected with saline as a control. Tumor size was monitored with a caliper and volumes estimated using the formula π/6×length×width^2. The experiment was stopped 12 days after injection because all mice in the control group had died or their tumor had reached 20 mm in their maximal diameter. […] Thus, intratumoral LL-37 injection induces potent anti-tumor activity.

[1] = system: myeloid (monocyte-derived) DC; assay: Myeloid DC maturation (CD80) and cytokine secretion; type: cell-based, human; settings: RNA 10 μg ml^−1 premixed with LL-37 (10 μM), overnight culture
Description: Myeloid (monocyte-derived) DC were stimulated with RNA isolated from U937 cells (human RNA) or a synthetic single-stranded RNA sequence derived from HIV (ssRNA40) and a known TL-7/8 ligand either alone ([…]) or after premixing with LL-37 (10 μM). (a) Maturation was assessed by flow cytometry analysis of CD80 after overnight culture.
In a second set of experiments, myeloid (monocyte-derived) DC were stimulated with RNA isolated from U937 cells (human RNA) or a synthetic single-stranded RNA sequence derived from HIV (ssRNA40) and a known TLR-7/8 ligand either alone (10 μg ml^−1) or after premixing with LL-37 (10 μM). Maturation was assessed by flow cytometry analysis of CD80 after overnight culture (FIG. 21A). Levels of TNF-α, IL-6, EL-12, and IL-23 were measured after overnight culture (FIG. 21B).

U937 = assay: Binding and protection of DNA released by dying tumor cells (electrophoresis of supernatants); type: cell-based, human; settings: irradiated tumor cells, 24 h culture
Description: (a) U937 were UV-irradiated to induce apoptosis and cultured for 24 h, or rendered necrotic by repeated freeze/thaw cycles and stained with Annexin V and PI to visualize apoptosis and necrosis. (b) 5×10^6 live U937 cells (lines 1+2), or apoptotic UV-irradiated U937 (lines 3+4) were cultured for 24 h either alone or in the presence of LL-37 ([…]) before cell free supernatant was collected. U397 were also lyzed by freeze-thaw cycles to induce primary necrosis and cultured for 1 h either alone or in the presence of LL-37 ([…]) before cell free supernatant was collected. 20 ul of the supernatants in buffer were loaded onto 1% agarose gel and the electrophoresis was ran for 1.5 hrs at 100V. The image was acquired with a Biorad gel imaging system.
LL-37 combined with dying tumor cells can bind tumor-derived self-DNA in-vitro. To test the ability of LL-37 to bind and protect self-DNA released by dying tumor cells, we generated apoptotic and necrotic tumor cells in the presence or absence of LL-37, and measured DNA contents in culture supernatants by electrophoresis. Primary necrosis induced by consecutive freeze and thaw cycles, and apoptosis with secondary necrosis induced by γ-irradiation at 20,000 rad followed by a 24 h culture (at 5×10^6 cells in 500 μl) were confirmed by Annexin plus PI staining (FIG. 26a).

For “LLGDFFRKSKEKIGKEFKRIVQRIKDFLRNLVPRTES [LL-37]”, the “Adjuvant potency compared to CpGs (CpG-2216)” value (B16-OVA tumor) was “more potent than CpGs”, the “Growth of established B16 tumor, single intratumoral injection” value (B16 tumor; 100 μg on day 7) was “significantly delayed the growth of established B16 tumor” and the “Anti-tumor response, repeated intratumoral injection” value (B16 tumor; three consecutive days) was “showed a trend towards a better anti-tumor response”. The “Myeloid DC maturation and cytokine secretion” value [1] was “converts self-RNA and viral RNA into activator of myeloid DC maturation and cytokine secretion” and the “DNA detected in culture supernatants of dying tumor cells” value (U937) was “exclusively detected DNA in supernatants of irradiated tumor cells cultured with LL-37”.
